The source of these data is patent publication US8242111B2, “Cyclic inhibitors of 11β-hydroxysteroid dehydrogenase 1” (Vitae Pharmaceuticals, Inc., priority 2008, dated 2012).

The target of assay [1] is T1, human 11β-HSD1 (Homo sapiens, UniProt P28845).
T1 construct: expressed in transfected cells; host or cells: CHO cells (microsomes)
Put plainly: Biological Test Example 1: inhibition of a microsomal preparation of 11β-HSD1 (SPA). It counts as biochemical. Conditions: for inhibition at 0.1 µM: read-out: Average % inhibition at 100 nM.

For assay [2], the target named is T1, human 11β-HSD1. Description: Biological Test Example 4: inhibition of microsomal 11β-HSD1 in the presence of 50% human plasma. In kind it is biochemical. Particulars: examples; for IC50: 50% human plasma; for Shift: IC50 in Biological Test Example 4 divided by IC50 in Biological Test Example 1.
Setting [3] is: Biological Test Example 1, read-out: IC50 Range.
[4] abbreviates: Biological Test Example 1 IC50 (nM), examples.
Setting [5] is: read-out: Biological Test Example 1 IC50, comparator compounds.

As a reminder, the IC50 is the concentration needed to halve the response being measured. As a reminder, the inhibition is the drop in the measured response relative to a control, in per cent.

T1 sequence (P28845 whole entry): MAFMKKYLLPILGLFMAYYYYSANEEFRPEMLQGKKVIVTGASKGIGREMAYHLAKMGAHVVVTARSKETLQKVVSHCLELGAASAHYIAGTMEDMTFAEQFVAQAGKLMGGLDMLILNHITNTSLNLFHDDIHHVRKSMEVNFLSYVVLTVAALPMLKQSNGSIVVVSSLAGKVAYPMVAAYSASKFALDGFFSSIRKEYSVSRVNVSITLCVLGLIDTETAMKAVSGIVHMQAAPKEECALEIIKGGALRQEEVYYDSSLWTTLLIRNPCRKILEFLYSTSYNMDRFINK

On to `CC(C)(O)C[C@]1(c2ccccc2)CCN([C@H]2CCCN(c3ncccc3F)C2)C(=O)O1` [Example 1, (S)-3-((S)-1-(3-fluoropyridin-2-yl)piperidin-3-yl)-6-(2-hydroxy-2-methylpropyl)-6-phenyl-1,3-oxazinan-2-one], for which the IC50 is less than 100 nM at human 11β-HSD1 [1] (setting [3]) and 12.7 nM against human 11β-HSD1 [1] (setting [4]). Further, the inhibition at 0.1 µM at human 11β-HSD1 [1] is 85.5%.
As for `CC(C)(O)C[C@]1(c2ccccc2)CCN([C@H]2CCCN(c3ncccc3C(F)(F)F)C2)C(=O)O1` [Example 2, (S)-6-(2-hydroxy-2-methylpropyl)-6-phenyl-3-((S)-1-(3-(trifluoromethyl)pyridin-2-yl)piperidin-3-yl)-1,3-oxazinan-2-one], the IC50 on human 11β-HSD1 [1] (setting [3]) is less than 100 nM; against human 11β-HSD1 [1] (setting [4]), 22.6 nM; on human 11β-HSD1 [2], 210 nM. Further, the inhibition at 0.1 µM on human 11β-HSD1 [1] came to 77.8%. Moreover, the Shift at human 11β-HSD1 [2] came to 9.3.
In the same order, the values of `CC(C)(O)C[C@]1(c2ccccc2)CCN([C@H]2CCCN(c3cc(C(F)(F)F)ccn3)C2)C(=O)O1` [Example 3, (S)-6-(2-hydroxy-2-methylpropyl)-6-phenyl-3-((S)-1-(4-(trifluoromethyl)pyridin-2-yl)piperidin-3-yl)-1,3-oxazinan-2-one] are less than 100 nM, 4.4 nM, 68.7 nM, 91.3% and 15.6.
Taken in the same sequence, the figures for `CC(C)(O)C[C@]1(c2ccccc2)CCN([C@H]2CCCN(c3ccc(C(F)(F)F)cn3)C2)C(=O)O1` [Example 4, (S)-6-(2-hydroxy-2-methylpropyl)-6-phenyl-3-((S)-1-(5-(trifluoromethyl)Pyridin-2-yl)piperidin-3-yl)-1,3-oxazinan-2-one] were less than 100 nM, 4.1 nM, 21.6 nM, 89.8% and 5.3.
Turning to `CC(C)(O)C[C@]1(c2ccccc2)CCN([C@H]2CCCN(c3cccc(C(F)(F)F)n3)C2)C(=O)O1` [Example 5, (S)-6-(2-hydroxy-2-methylpropyl)-6-phenyl-3-((S)-1-(6-(trifluoromethyl)pyridin-2-yl)piperidin-3-yl)-1,3-oxazinan-2-one], the IC50 is less than 100 nM on human 11β-HSD1 [1] (setting [3]) and 11.8 nM on human 11β-HSD1 [1] (setting [4]). The inhibition at 0.1 µM on human 11β-HSD1 [1] stood at 86%.
In the same order, the values of `Cc1cc(N2CCC[C@H](N3CC[C@](CC(C)(C)O)(c4ccccc4)OC3=O)C2)nc(C)n1` [Example 9, (S)-3-((S)-1-(2,6-dimethylpyrimidin-4-yl)piperidin-3-yl)-6-(2-hydroxy-2-methylpropyl)-6-phenyl-1,3-oxazinan-2-one] are less than 100 nM, 84.3 nM and 40.2%.
Take `CC(C)(O)C[C@]1(c2ccccc2)CCN([C@H]2CCCN(c3ccnc(C(F)(F)F)n3)C2)C(=O)O1` [Example 11, (S)-6-(2-hydroxy-2-methylpropyl)-6-phenyl-3-((S)-1-(2-(trifluoromethyl)pyrimidin-4-yl)piperidin-3-yl)-1,3-oxazinan-2-one]: the IC50 on human 11β-HSD1 [1] (setting [3]) was less than 100 nM; at human 11β-HSD1 [1] (setting [4]), 19.1 nM. In addition, the inhibition at 0.1 µM at human 11β-HSD1 [1] was found to be 75.3%.
In the same order, the values of `Cc1cnc(N2CCC[C@H](N3CC[C@](CC(C)(C)O)(c4ccccc4)OC3=O)C2)s1` [Example 13, (S)-6-(2-hydroxy-2-methylpropyl)-3-((S)-1-(5-methylthiazol-2-yl)piperidin-3-yl)-6-phenyl-1,3-oxazinan-2-one] are less than 100 nM, 13.5 nM and 90.4%.
As to `N#Cc1ccc(N2CCC[C@H](N3CC[C@](CCCO)(c4ccc(F)cc4)OC3=O)C2)nc1` [Example 17, 6((S)-3-((R)-6-(4-fluorophenyl)-6-(3-hydroxypropyl)-2-oxo-1,3-oxazinan-3-yl)piperidin-1-yl)nicotinonitrile], the IC50 at human 11β-HSD1 [1] (setting [3]) was less than 100 nM. Also, at human 11β-HSD1 [1], the inhibition at 0.1 µM turned out to be 94.7%.
Regarding `NC(=O)c1ccc(N2CCC[C@H](N3CC[C@](CCCO)(c4ccc(F)cc4)OC3=O)C2)nc1` [Example 18, 6-((S)-3-((R)-6-(4-fluorophenyl)-6-(3-hydroxypropyl)-2-oxo-1,3-oxazinan-3-yl)piperidin-1-yl)nicotinamide], the IC50 was less than 100 nM on human 11β-HSD1 [1] (setting [3]) and 26.4 nM against human 11β-HSD1 [1] (setting [4]). For the same compound, the inhibition at 0.1 µM on human 11β-HSD1 [1] came to 81.6%.
For the compound `CNC(=O)c1ccc(N2CCC[C@H](N3CC[C@](CCCO)(c4ccc(F)cc4)OC3=O)C2)nc1` [Example 19, 6-((S)-3-((R)-6-(4-fluorophenyl)-6-(3-hydroxypropyl)-2-oxo-1,3-oxazinan-3-yl)piperidin-1-yl)-N-methylnicotinamide], the IC50 on human 11β-HSD1 [1] (setting [3]) was less than 100 nM; at human 11β-HSD1 [1] (setting [4]), 65.6 nM. In addition, at human 11β-HSD1 [1], the inhibition at 0.1 µM worked out at 55.2%.
Taken in the same sequence, the figures for `CN(C)C(=O)c1ccc(N2CCC[C@H](N3CC[C@](CCCO)(c4ccc(F)cc4)OC3=O)C2)nc1` [Example 20, 6-((S)-3-((R)-6-(4-fluorophenyl)-6-(3-hydroxpropyl)-2-oxo-1,3-oxazinan-3-yl)piperidin-1-yl)-N,N-dimethylnicotinamide] were less than 100 nM, 27.4 nM and 72.5%.
In the same order, the values of `CC(C)(O)C[C@]1(c2ccccc2)CCN([C@H]2CCCN(c3ncc(C(=O)NC(C)(C)C)s3)C2)C(=O)O1` [Example 21, N-tert-butyl-2-((S)-3-((S)-6-(2-hydroxy-2-methylpropyl)-2-oxo-6-phenyl-1,3-oxazinan-3-yl)piperidin-1-yl)thiazole-5-carboxamide] are 190 nM, greater than 100 nM and 27.3%.
Consider `Cc1nnc(N2CCC[C@H](N3CC[C@](CC(C)(C)O)(c4ccccc4)OC3=O)C2)cc1Cl` [Example 22, (S)-3-((S)-1-(5-chloro-6-methylpyridazin-3-yl)piperidin-3-yl)-6-(2-hydroxy-2-methylpropyl)-6-phenyl-1,3-oxazinan-2-one], for which the figures for the concentration for half-maximal inhibition (IC50) on human 11β-HSD1 [1] (setting [3]) and against human 11β-HSD1 [1] (setting [4]) were 190 nM and greater than 100 nM, respectively. Moreover, at human 11β-HSD1 [1], the inhibition at 0.1 µM was determined as 20.9%.
In the same order, the values of `COc1cnc(N2CC[C@H](N3CC[C@](CC(C)(C)O)(c4ccccc4)OC3=O)C2)nc1` [Example 24, (S)-6-(2-hydroxy-2-methylpropyl)-3-((S)-1-(5-methoxypyrimidin-2-yl)pyrrolidin-3-yl)-6-phenyl-1,3-oxazinan-2-one] are less than 100 nM, 42.3 nM and 67.8%.
As to “(S)-3-((S)-1-(3-fluoropyridin-2-yl)piperidin-3-yl)-6-(2-hydroxy-2-methylpropyl)-6-phenyl-1,3-oxazinan-2-one [Example 1]”, the IC50 on human 11β-HSD1 [1] (setting [5]) amounted to 0.77 nM.
Still for that read-out and setting: for “(S)-3-((S)-1-(5-fluoropyrimidin-2-yl)piperidin-3-yl)-6-(2-hydroxy-2-methylpropyl)-6-phenyl-1,3-oxazinan-2-one [Example 7]” the value was 0.99 nM; for “(S)-6-(2-hydroxy-2-methylpropyl)-6-phenyl-3-((S)-1-(3-(trifluoromethyl)pyridin-2-yl)piperidin-3-yl)-1,3-oxazinan-2-one [Example 2]”, 1.8 nM.
On to “(S)-6-(2-hydroxy-2-methylpropyl)-6-phenyl-3-((S)-1-(6-(trifluoromethyl)pyridin-2-yl)piperidin-3-yl)-1,3-oxazinan-2-one [Example 5]”, for which, on human 11β-HSD1 [1] (setting [5]), the IC50 came to 0.51 nM.
